Data on 13 compounds can be found in US7399868B2, “4-(Heteroaryl-methyl and substituted heteroaryl-methyl)-imidazole-2-thiones acting as alpha2 adrenergic agonists” (Allergan, Inc., priority 2004, dated 2008).

The structures appear in SMILES notation.

The first series concerns the target T1, alpha2B adrenergic receptor (Homo sapiens, UniProt P18089).
T1 construct: expressed in transfected cells; host or cells: NIH-3T3
T1 sequence (P18089 1-450): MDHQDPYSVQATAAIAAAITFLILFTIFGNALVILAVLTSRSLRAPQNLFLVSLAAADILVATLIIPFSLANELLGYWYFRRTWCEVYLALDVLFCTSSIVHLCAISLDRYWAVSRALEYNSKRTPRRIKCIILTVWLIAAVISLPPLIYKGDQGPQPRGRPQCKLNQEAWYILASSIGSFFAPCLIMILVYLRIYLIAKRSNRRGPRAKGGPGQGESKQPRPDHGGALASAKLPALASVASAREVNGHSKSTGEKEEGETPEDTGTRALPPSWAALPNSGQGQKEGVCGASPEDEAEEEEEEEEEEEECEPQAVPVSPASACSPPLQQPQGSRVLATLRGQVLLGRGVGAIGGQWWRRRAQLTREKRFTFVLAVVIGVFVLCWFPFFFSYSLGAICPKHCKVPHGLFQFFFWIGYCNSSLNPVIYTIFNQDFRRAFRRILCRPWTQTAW
In words: Receptor Selection and Amplification Technology (RSAT) assay, alpha2B. In kind it is cell-based. Conditions: ratio of maximal effect to that of standard full agonist brimonidine (UK14304). From the text:
(§1) The imidazole-2-thione compounds of the invention are agonists of alpha2 adrenergic receptors. […] Al., 1995, Pharmacol. Toxicol. 76, pp. 308-311 (incorporated herein by reference) and is also described below. Another reference pertinent to this assay is Conklin et al. (1993) Nature 363:274-6, also incorporated herein by reference.
(§2) Receptor Selection and Amplification Technology (RSAT) Assay
The RSAT assay measures a receptor-mediated loss of contact inhibition that results in selective proliferation of receptor-containing cells in a mixed population of confluent cells. The increase in cell number is assessed with an appropriate transfected marker gene such as ∃-galactosidase, the activity of which can be easily measured in a 96-well format. Receptors that activate the G protein, Gq, elicit this response. Alpha2 receptors, which normally couple to Gi, activate the RSAT response when coexpressed with a hybrid Gq protein that has a Gi receptor recognition domain, called Gq/i5.
NIH-3T3 cells are plated at a density of 2×10^6 cells in 15 cm dishes and maintained in Dulbecco's modified Eagle's medium supplemented with 10% calf serum. One day later, cells are cotransfected by calcium phosphate precipitation with mammalian expression plasmids encoding p-SV-β-galactosidase (5-10 μg), receptor (1-2 μg) and G protein (1-2 μg). 40 μg salmon sperm DNA may also be included in the transfection mixture. Fresh media is added on the following day and 1-2 days later, cells are harvested and frozen in 50 assay aliquots. Cells are thawed and 100 μl added to 100 μl aliquots of various concentrations of drugs in triplicate in 96-well dishes. Incubations continue 72-96 hr at 37° C. After washing with phosphate-buffered saline, ∃-galactosidase enzyme activity is determined by adding 200 μl of the chromogenic substrate (consisting of 3.5 mM o-nitrophenyl-β-D-galactopyranoside and 0.5% nonidet P-40 in phosphate buffered saline), incubating overnight at 30° C. and measuring optical density at 420 nm. The absorbance is a measure of enzyme activity, which depends on cell number and reflects a receptor-mediated cell proliferation. The efficacy or intrinsic activity is calculated as a ratio of the maximal effect of the drug to the maximal effect of a standard full agonist for each receptor subtype. Brimonidine, also called UK14304, the chemical structure of which is shown below, is used as the standard agonist for the alpha2A, alpha2B and alpha2C receptors.
The results of the RSAT assay with several exemplary compounds of the invention are disclosed in Table 1 above together with the chemical formulas of these examplary compounds. NA stands for “not active” at concentrations less than 10 micromolar.
With `S=c1[nH]cc(Cn2ccc3c(Cl)cccc32)[nH]1` [Compound 1, 4-(4-chloro-indol-1-ylmethyl)-1,3-dihydro-imidazole-2-thione], the “Intrinsic Activity Alpha 2B” value amounted to 1.17.

Take `Cc1cccc2ccn(Cc3c[nH]c(=S)[nH]3)c12` [Compound 2, 4-(7-methyl-indol-1-ylmethyl)-1,3-dihydro-imidazole-2-thione]: the “Intrinsic Activity Alpha 2B” value stood at 1.01. The same measure, in the same setting: under `Fc1cccc2ccn(Cc3c[nH]c(=S)[nH]3)c12` [Compound 3, 4-(7-fluoro-indol-1-ylmethyl)-1,3-dihydro-imidazole-2-thione] stands 1.07; under `S=c1[nH]cc(Cn2ccc3cccc(Cl)c32)[nH]1` [Compound 4, 4-(7-chloro-indol-1-ylmethyl)-1,3-dihydro-imidazole-2-thione], 1.17; under `S=c1[nH]cc(Cn2ccc3cccc(Br)c32)[nH]1` [Compound 5, 4-(7-Bromo-indol-1-ylmethyl)-1,3-dihydro-imidazole-2-thione], 1.01. For the compound `S=c1[nH]cc(Cn2ccc3ccc(Cl)c(Cl)c32)[nH]1` [Compound 6, 4-(6,7-Dichloro-indol-1-ylmethyl)-1,3-dihydro-imidazole-2-thione], the “Intrinsic Activity Alpha 2B” value is listed as 0.98. On the same count and under the same terms, for `S=c1[nH]cc(Cn2ccc3ccnc(Cl)c32)[nH]1` [Compound 7, 4-(7-chloro-pyrrolo[2,3-c]pyridin-1-ylmethyl)-1,3-dihydro-imidazole-2-thione] the value was 1.5; for `S=c1[nH]cc(Cn2ccc3ccc(Cl)nc32)[nH]1` [Compound 8, 4-(6-Chloro-pyrrolo[2,3-b]pyridin-1-ylmethyl)-1,3-dihydro-imidazole-2-thione], 0.76. As to `Cc1cccc(C(C)c2c[nH]c(=S)[nH]2)n1` (stereo not drawn) [Compound 9, 4-[1-(6-methyl-pyridin-2-yl)-ethyl]-1,3-dihydro-imidazole-2-thione], the “Intrinsic Activity Alpha 2B” value worked out at 1.16. In the case of `S=c1[nH]cc(Cc2cccs2)[nH]1` [Compound 10, 4-thiophen-2-ylmethyl-1,3-dihydro-imidazole-2-thione], the “Intrinsic Activity Alpha 2B” value is 1.09. Regarding `S=c1[nH]cc(CN2CCCc3ccccc32)[nH]1` [Compound 11, 4-(3,4-dihydro-2H-quinolin-1-ylmethyl)-1,3-dihydro-imidazole-2-thione], the “Intrinsic Activity Alpha 2B” value is listed as 1.13.

On to `CC(c1c[nH]c(=S)[nH]1)c1ccnc2c1CCCC2` (stereo not drawn) [Compound 12, 4-[1-(5,6,7,8-tetrahydro-quinolin-4-yl)-ethyl]-1,3-dihydro-imidazole-2-thione], for which the “Intrinsic Activity Alpha 2B” value came to 0.99.

As for `CC(c1c[nH]c(=S)[nH]1)c1coc2ccccc12` (stereo not drawn) [Compound 14, 4-(1-benzofuran-3-yl-ethyl)-1,3-dihydro-imidazole-2-thione], the “Intrinsic Activity Alpha 2B” value was 1.0.

The next series has as its system rats with ligated L5 and L6 spinal nerves. Nature of the series: Chung model of neuropathic pain (tactile allodynia, von Frey hairs). In kind it is in vivo, rat. Particulars: 30 μg/kg i.p.; 30 min following drug administration; p<0.001 compared to pretreatment. From the text:
Alleviation of Chronic Pain
A model in accordance with Kim and Chung 1992, Pain […], pp 355-363 (Chung model), for chronic pain (in particular peripheral neuropathy) involves the surgical ligation of the L5 (and optionally the L6) spinal nerves on one side in experimental animals. Rats recovering from the surgery gain weight and display a level of general activity similar to that of normal rats. However, these rats develop abnormalities of the foot, wherein the hindpaw is moderately everted and the toes are held together. More importantly, the hindpaw on the side affected by the surgery appears to become sensitive to pain from low-threshold mechanical stimuli, such as that producing a faint sensation of touch in a human, within about 1 week following surgery. This sensitivity to normally non-painful touch is called “tactile allodynia” and lasts for at least two months. […]
Tactile allodynia is measured prior to and 30 minutes after drug administration using von Frey hairs that are a series of fine hairs with incremental differences in stiffness. […] The applied force has been calculated to range from 0.41 to 15.1 grams. […] The 50% paw withdrawal threshold is determined using the method of Dixon, W. J., Ann. […] The post-drug threshold is compared to the pre-drug threshold and the percent reversal of tactile sensitivity is calculated based on a normal threshold of 15.1 grams. […]
With `CC(c1c[nH]c(=S)[nH]1)c1coc2ccccc12` (stereo not drawn) [Compound 14, 4-(1-benzofuran-3-yl-ethyl)-1,3-dihydro-imidazole-2-thione], the “% Pain Reversal” value is 20%.

The same series, now with this note: 300 μg/kg i.p.; 30 min following drug administration; p<0.001 compared to pretreatment.
As for `CC(c1c[nH]c(=S)[nH]1)c1coc2ccccc12` (stereo not drawn) [Compound 14, 4-(1-benzofuran-3-yl-ethyl)-1,3-dihydro-imidazole-2-thione], the “% Pain Reversal” value turned out to be 80%.

The target of another series is T2, alpha2C adrenergic receptor (Homo sapiens, UniProt P18825).
T2 construct: expressed in transfected cells; host or cells: NIH-3T3
T2 sequence (P18825 1-462): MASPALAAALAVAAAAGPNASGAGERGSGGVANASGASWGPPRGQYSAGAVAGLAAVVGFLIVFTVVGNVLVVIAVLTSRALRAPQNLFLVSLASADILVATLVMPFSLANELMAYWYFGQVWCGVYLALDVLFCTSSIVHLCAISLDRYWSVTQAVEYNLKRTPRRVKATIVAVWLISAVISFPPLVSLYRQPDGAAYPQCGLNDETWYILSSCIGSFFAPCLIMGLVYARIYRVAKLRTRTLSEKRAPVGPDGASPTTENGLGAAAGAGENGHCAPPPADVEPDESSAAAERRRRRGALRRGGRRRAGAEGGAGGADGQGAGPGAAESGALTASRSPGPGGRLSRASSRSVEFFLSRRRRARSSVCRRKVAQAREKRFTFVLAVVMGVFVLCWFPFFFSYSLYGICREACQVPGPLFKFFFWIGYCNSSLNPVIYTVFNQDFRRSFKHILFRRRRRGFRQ
In words: Receptor Selection and Amplification Technology (RSAT) assay, alpha2C. The format is cell-based. Conditions: ratio of maximal effect to that of standard full agonist brimonidine (UK14304).
Excerpt: as §1, §2
The RSAT assay measures a receptor-mediated loss of contact inhibition that results in selective proliferation of receptor-containing cells in a mixed population of confluent cells. The increase in cell number is assessed with an appropriate transfected marker gene such as ∃-galactosidase, the activity of which can be easily measured in a 96-well format. […]
NIH-3T3 cells are plated at a density of 2×10^6 cells in 15 cm dishes and maintained in Dulbecco's modified Eagle's medium supplemented with 10% calf serum. […] After washing with phosphate-buffered saline, ∃-galactosidase enzyme activity is determined by adding 200 μl of the chromogenic substrate (consisting of 3.5 mM o-nitrophenyl-β-D-galactopyranoside and 0.5% nonidet P-40 in phosphate buffered saline), incubating overnight at 30° C. and measuring optical density at 420 nm. The absorbance is a measure of enzyme activity, which depends on cell number and reflects a receptor-mediated cell proliferation. […]
As to `S=c1[nH]cc(Cn2ccc3cccc(Br)c32)[nH]1` [Compound 5, 4-(7-Bromo-indol-1-ylmethyl)-1,3-dihydro-imidazole-2-thione], the “Intrinsic Activity Alpha 2C” value turned out to be 0.77.

A further series relates to male Sprague-Dawley rats. Nature of the series: Sedative activity (exploratory behavior/locomotor) in rats. In kind it is in vivo, rat. Conditions: intraperitoneally, up to a dose of 1 mg/kg. The procedure:
To test sedation, six male Sprague-Dawley rats are given up to 3 mg/kg of the test compound in a saline or DMSO vehicle by intraperitoneal injection (i.p.). Sedation is graded 30 minutes following administration of the drug by monitoring locomotor skills as follows.
The Sprague-Dawley rats are weighed and 1 ml/kg body weight of an appropriate concentration (ie. 3 mg/ml for a final dose of 3 mg/kg) drug solution is injected intraperitoneally. Typically the test compound is formulated in approximately 10 to 50% DMSO. The results are compared to controls that are injected with 1 ml/kg saline or 10 to 50% DMSO. Rat activity is then determined 30 minutes after injection of the drug solution. Rats are placed in a dark covered chamber and a digicom analyzer (Omnitech Electronic) quantitates their exploratory behavior for a five-minute period. The machine records each time the rat interrupts an array of 32 photoelectric beams in the X and Y orientation.
Effects on Cardiovascular System
Regarding `Fc1cccc2ccn(Cc3c[nH]c(=S)[nH]3)c12` [Compound 3, 4-(7-fluoro-indol-1-ylmethyl)-1,3-dihydro-imidazole-2-thione], the sedative effect entry is on record as “no sedative effect”. Turning to `S=c1[nH]cc(Cn2ccc3cccc(Br)c32)[nH]1` [Compound 5, 4-(7-Bromo-indol-1-ylmethyl)-1,3-dihydro-imidazole-2-thione], the sedative effect entry is reported as “no sedative effect”.
